In ChEMBL document CHEMBL3885881, “DrugMatrix”:

Species: Rattus norvegicus
Assay: DrugMatrix - Regimen: Daily Repeat
Assay type: toxicity, organism-based, Sprague-Dawley
Design: regimen Daily Repeat, gender Male, age 6-8 weeks
Settings: in vivo, po, route oral GAVAGE, […]; for BASOPHIL / EOSINOPHIL / ERYTHROCYTE COUNT / HEMATOCRIT / HEMOGLOBIN / LEUKOCYTE COUNT / LYMPHOCYTE / MEAN CORPUSCULAR HEMOGLOBIN / MEAN CORPUSCULAR HEMOGLOBIN CONCENTRATION / MEAN CORPUSCULAR VOLUME / MONOCYTE / NEUTROPHIL / PLATELET COUNT: tissue Blood; for ALANINE AMINOTRANSFERASE / ALBUMIN / ALKALINE PHOSPHATASE / ASPARTATE AMINOTRANSFERASE / BLOOD UREA NITROGEN / CARBON DIOXIDE / CHLORIDE / CHOLESTEROL / CREATINE PHOSPHOKINASE / CREATININE / GLUCOSE / LACTATE DEHYDROGENASE / LIPASE / PHOSPHORUS / POTASSIUM / SODIUM / TOTAL BILIRUBIN / TOTAL PROTEIN / URIC ACID: tissue Plasma
[1] = 0 mg/kg, 72 h, dose level Control, time 3 day
[2] = 0 mg/kg, 120 h, dose level Control, time 5 day
[3] = 0 mg/kg, dose level Control, time 14 day
[4] = 24 mg/kg, 72 h, dose level High, time 3 day
[5] = 24 mg/kg, 120 h, dose level High, time 5 day
[6] = 24 mg/kg, dose level High, time 14 day

c1ccoc1 [FURAN]
BASOPHIL [1]: 0.55% | EOSINOPHIL [1]: 0.55% | ERYTHROCYTE COUNT [1]: 6.6 x10E6/uL | HEMATOCRIT [1]: 43.77% | HEMOGLOBIN [1]: 14.12 G/DL | LEUKOCYTE COUNT [1]: 10.15 x10E3/uL | LYMPHOCYTE [1]: 87.95% | MEAN CORPUSCULAR HEMOGLOBIN [1]: 21.4 pg | MEAN CORPUSCULAR HEMOGLOBIN CONCENTRATION [1]: 32.23 G/DL | MEAN CORPUSCULAR VOLUME [1]: 66.33 fL | MONOCYTE [1]: 1.7% | NEUTROPHIL [1]: 8.05% | PLATELET COUNT [1]: 1122 x10E3/uL | ALANINE AMINOTRANSFERASE [1]: 49.33 u/L | ALBUMIN [1]: 4.08 G/DL | ALKALINE PHOSPHATASE [1]: 565 u/L | ASPARTATE AMINOTRANSFERASE [1]: 81.5 u/L | BLOOD UREA NITROGEN [1]: 14.33 mg/dL | CARBON DIOXIDE [1]: 27.17 mmol/L | CHLORIDE [1]: 106.83 MEQ/L | CHOLESTEROL [1]: 74.83 mg/dL | CREATINE PHOSPHOKINASE [1]: 342.33 u/L | CREATININE [1]: 0.4 mg/dL | GLUCOSE [1]: 169.5 mg/dL | LACTATE DEHYDROGENASE [1]: 165.17 u/L | LIPASE [1]: 13.67 u/L | PHOSPHORUS [1]: 12.42 mg/dL | POTASSIUM [1]: 6.7 MEQ/L | SODIUM [1]: 151.17 MEQ/L | TOTAL BILIRUBIN [1]: 0.4 mg/dL | TOTAL PROTEIN [1]: 6.13 G/DL | URIC ACID [1]: 1.62 mg/dL | BASOPHIL [2]: 0.87% | EOSINOPHIL [2]: 0.53% | ERYTHROCYTE COUNT [2]: 6.86 x10E6/uL | HEMATOCRIT [2]: 45.15% | HEMOGLOBIN [2]: 14.42 G/DL | LEUKOCYTE COUNT [2]: 12.67 x10E3/uL | LYMPHOCYTE [2]: 87.1% | MEAN CORPUSCULAR HEMOGLOBIN [2]: 21.05 pg | MEAN CORPUSCULAR HEMOGLOBIN CONCENTRATION [2]: 32 G/DL | MEAN CORPUSCULAR VOLUME [2]: 65.75 fL | MONOCYTE [2]: 1.9% | NEUTROPHIL [2]: 8.25% | PLATELET COUNT [2]: 1111 x10E3/uL | ALANINE AMINOTRANSFERASE [2]: 46.17 u/L | ALBUMIN [2]: 4.15 G/DL | ALKALINE PHOSPHATASE [2]: 447.17 u/L | ASPARTATE AMINOTRANSFERASE [2]: 65.67 u/L | BLOOD UREA NITROGEN [2]: 13.17 mg/dL | CARBON DIOXIDE [2]: 29 mmol/L | CHLORIDE [2]: 104.5 MEQ/L | CHOLESTEROL [2]: 72 mg/dL | CREATINE PHOSPHOKINASE [2]: 368.5 u/L | CREATININE [2]: 0.3 mg/dL | GLUCOSE [2]: 162.83 mg/dL | LACTATE DEHYDROGENASE [2]: 99.33 u/L | LIPASE [2]: 12.67 u/L | PHOSPHORUS [2]: 12.65 mg/dL | POTASSIUM [2]: 6.52 MEQ/L | SODIUM [2]: 148.67 MEQ/L | TOTAL BILIRUBIN [2]: 0.38 mg/dL | TOTAL PROTEIN [2]: 6.15 G/DL | URIC ACID [2]: 1.9 mg/dL | BASOPHIL [3]: 0.58% | EOSINOPHIL [3]: 0.45% | ERYTHROCYTE COUNT [3]: 7.51 x10E6/uL | HEMATOCRIT [3]: 46.87% | HEMOGLOBIN [3]: 15.2 G/DL | LEUKOCYTE COUNT [3]: 14.2 x10E3/uL | LYMPHOCYTE [3]: 80.78% | MEAN CORPUSCULAR HEMOGLOBIN [3]: 20.25 pg | MEAN CORPUSCULAR HEMOGLOBIN CONCENTRATION [3]: 32.42 G/DL | MEAN CORPUSCULAR VOLUME [3]: 62.45 fL | MONOCYTE [3]: 1.95% | NEUTROPHIL [3]: 13.97% | PLATELET COUNT [3]: 1115.17 x10E3/uL | ALANINE AMINOTRANSFERASE [3]: 32.5 u/L | ALBUMIN [3]: 4.22 G/DL | ALKALINE PHOSPHATASE [3]: 349.5 u/L | ASPARTATE AMINOTRANSFERASE [3]: 59.67 u/L | BLOOD UREA NITROGEN [3]: 14.83 mg/dL | CARBON DIOXIDE [3]: 30.33 mmol/L | CHLORIDE [3]: 102.17 MEQ/L | CHOLESTEROL [3]: 76 mg/dL | CREATINE PHOSPHOKINASE [3]: 163.17 u/L | CREATININE [3]: 0.37 mg/dL | GLUCOSE [3]: 157.33 mg/dL | LACTATE DEHYDROGENASE [3]: 93 u/L | LIPASE [3]: 10.4 u/L | PHOSPHORUS [3]: 11.93 mg/dL | POTASSIUM [3]: 6.55 MEQ/L | SODIUM [3]: 147.5 MEQ/L | TOTAL BILIRUBIN [3]: 0.4 mg/dL | TOTAL PROTEIN [3]: 6.45 G/DL | URIC ACID [3]: 0.7 mg/dL | BASOPHIL [4]: 0.77% | EOSINOPHIL [4]: 0.73% | ERYTHROCYTE COUNT [4]: 7.35 x10E6/uL | HEMATOCRIT [4]: 48.6% | HEMOGLOBIN [4]: 15.9 G/DL | LEUKOCYTE COUNT [4]: 11.15 x10E3/uL | LYMPHOCYTE [4]: 82.1% | MEAN CORPUSCULAR HEMOGLOBIN [4]: 21.57 pg | MEAN CORPUSCULAR HEMOGLOBIN CONCENTRATION [4]: 32.67 G/DL | MEAN CORPUSCULAR VOLUME [4]: 66.1 fL | MONOCYTE [4]: 3.27% | NEUTROPHIL [4]: 11.37% | PLATELET COUNT [4]: 1059 x10E3/uL | ALANINE AMINOTRANSFERASE [4]: 358 u/L | ALBUMIN [4]: 3.77 G/DL | ALKALINE PHOSPHATASE [4]: 771.67 u/L | ASPARTATE AMINOTRANSFERASE [4]: 316 u/L | BLOOD UREA NITROGEN [4]: 12.33 mg/dL | CARBON DIOXIDE [4]: 25 mmol/L | CHLORIDE [4]: 105.67 MEQ/L | CHOLESTEROL [4]: 87.67 mg/dL | CREATINE PHOSPHOKINASE [4]: 333.33 u/L | CREATININE [4]: 0.57 mg/dL | GLUCOSE [4]: 150.67 mg/dL | LACTATE DEHYDROGENASE [4]: 707 u/L | LIPASE [4]: 11.67 u/L | PHOSPHORUS [4]: 13.97 mg/dL | POTASSIUM [4]: 6.6 MEQ/L | SODIUM [4]: 149.33 MEQ/L | TOTAL BILIRUBIN [4]: 0.93 mg/dL | TOTAL PROTEIN [4]: 5.4 G/DL | URIC ACID [4]: 2.27 mg/dL | BASOPHIL [5]: 0.57% | EOSINOPHIL [5]: 0.6% | ERYTHROCYTE COUNT [5]: 7.68 x10E6/uL | HEMATOCRIT [5]: 50.57% | HEMOGLOBIN [5]: 16.23 G/DL | LEUKOCYTE COUNT [5]: 17.47 x10E3/uL | LYMPHOCYTE [5]: 82.63% | MEAN CORPUSCULAR HEMOGLOBIN [5]: 21.1 pg | MEAN CORPUSCULAR HEMOGLOBIN CONCENTRATION [5]: 32.1 G/DL | MEAN CORPUSCULAR VOLUME [5]: 65.87 fL | MONOCYTE [5]: 2.43% | NEUTROPHIL [5]: 12.47% | PLATELET COUNT [5]: 1240.33 x10E3/uL | ALANINE AMINOTRANSFERASE [5]: 114.33 u/L | ALBUMIN [5]: 3.83 G/DL | ALKALINE PHOSPHATASE [5]: 986 u/L | ASPARTATE AMINOTRANSFERASE [5]: 240.67 u/L | BLOOD UREA NITROGEN [5]: 12.33 mg/dL | CARBON DIOXIDE [5]: 30.67 mmol/L | CHLORIDE [5]: 101.67 MEQ/L | CHOLESTEROL [5]: 93.33 mg/dL | CREATINE PHOSPHOKINASE [5]: 798.67 u/L | CREATININE [5]: 0.37 mg/dL | GLUCOSE [5]: 143 mg/dL | LACTATE DEHYDROGENASE [5]: 233.67 u/L | LIPASE [5]: 14.67 u/L | PHOSPHORUS [5]: 12.43 mg/dL | POTASSIUM [5]: 7.1 MEQ/L | SODIUM [5]: 148.33 MEQ/L | TOTAL BILIRUBIN [5]: 0.87 mg/dL | TOTAL PROTEIN [5]: 5.63 G/DL | URIC ACID [5]: 2.27 mg/dL | BASOPHIL [6]: 0.54% | EOSINOPHIL [6]: 0.64% | ERYTHROCYTE COUNT [6]: 8.42 x10E6/uL | HEMATOCRIT [6]: 50.4% | HEMOGLOBIN [6]: 16.6 G/DL | LEUKOCYTE COUNT [6]: 14.86 x10E3/uL | LYMPHOCYTE [6]: 74.12% | MEAN CORPUSCULAR HEMOGLOBIN [6]: 19.76 pg | MEAN CORPUSCULAR HEMOGLOBIN CONCENTRATION [6]: 32.96 G/DL | MEAN CORPUSCULAR VOLUME [6]: 59.9 fL | MONOCYTE [6]: 2.54% | NEUTROPHIL [6]: 20.58% | PLATELET COUNT [6]: 1423.6 x10E3/uL | ALANINE AMINOTRANSFERASE [6]: 56 u/L | ALBUMIN [6]: 4.28 G/DL | ALKALINE PHOSPHATASE [6]: 706.2 u/L | ASPARTATE AMINOTRANSFERASE [6]: 86.6 u/L | BLOOD UREA NITROGEN [6]: 13.2 mg/dL | CARBON DIOXIDE [6]: 27 mmol/L | CHLORIDE [6]: 104 MEQ/L | CHOLESTEROL [6]: 106.8 mg/dL | CREATINE PHOSPHOKINASE [6]: 224.2 u/L | CREATININE [6]: 0.42 mg/dL | GLUCOSE [6]: 136.6 mg/dL | LACTATE DEHYDROGENASE [6]: 113.8 u/L | LIPASE [6]: 17.2 u/L | PHOSPHORUS [6]: 10.26 mg/dL | POTASSIUM [6]: 5.84 MEQ/L | SODIUM [6]: 148.4 MEQ/L | TOTAL BILIRUBIN [6]: 0.72 mg/dL | TOTAL PROTEIN [6]: 6.34 G/DL | URIC ACID [6]: 1.26 mg/dL
